In ChEMBL document CHEMBL2440042, “Anti-proliferative activity of hydnocarpin, a natural lignan, is associated with the suppression of Wnt/β-catenin signaling pathway in colon cancer cells” (Bioorg Med Chem Lett, 2013):
Activity calls are given as the source filed them. The calls are words filed in the database; no cut-off is given here.

Experiments:
SW480 [1] = assay: Inhibition of Wnt/beta-catenin signaling pathway in human SW480 cells assessed as CK1-alpha protein expression at 20 uM after 12 hrs by Western blotting analysis relative to vehicle-treated control
SW480 [2] = assay: Inhibition of Wnt/beta-catenin signaling pathway in human SW480 cells assessed as GSK3-beta protein expression at 20 uM after 12 hrs by Western blotting analysis relative to vehicle-treated control
SW480 [3] = assay: Inhibition of Wnt/beta-catenin signaling pathway in human SW480 cells assessed as dvl3 protein expression at 5 uM after 24 hrs by Western blotting analysis relative to vehicle-treated control
SW480 [4] = assay: Inhibition of Wnt/beta-catenin signaling pathway in human SW480 cells assessed as increase in phosphorylation of beta-catenin at Ser45 after 24 hrs by Western blotting analysis relative to vehicle-treated control; format: cell-based
SW480 [5] = assay: Inhibition of Wnt/beta-catenin signaling pathway in human SW480 cells assessed as beta-catenin protein expression at 5 uM after 24 hrs by Western blotting analysis relative to vehicle-treated control
SW480 [6] = assay: Inhibition of Wnt/beta-catenin signaling pathway in human SW480 cells assessed as beta-catenin protein expression at 10 uM after 24 hrs by Immunoblotting analysis relative to vehicle-treated control
SW480 [7] = assay: Inhibition of Wnt/beta-catenin signaling pathway in human SW480 cells assessed as Axin2 protein expression at 10 uM after 12 hrs by Western blotting analysis relative to vehicle-treated control
SW480 [8] = assay: Inhibition of Wnt/beta-catenin signaling pathway in human SW480 cells assessed as CK1-alpha protein expression at 10 uM after 24 hrs by Western blotting analysis relative to vehicle-treated control
HEK293 = assay: Inhibition of Wnt/beta-catenin signaling pathway in human HEK293 cells after 24 hrs by dual luciferase reporter gene assay relative to vehicle-treated control; format: cell-based
SW480 [9] = assay: Inhibition of Wnt/beta-catenin signaling pathway in human SW480 cells after 24 hrs by FOPflash luciferase reporter gene assay relative to vehicle-treated control; format: cell-based
SW480 [10] = assay: Inhibition of Wnt/beta-catenin signaling pathway in human SW480 cells assessed as dvl2 protein expression at 10 uM after 12 hrs by Western blotting analysis relative to vehicle-treated control
SW480 [11] = assay: Inhibition of Wnt/beta-catenin signaling pathway in human SW480 cells assessed as beta-catenin protein expression at 10 uM after 12 hrs by Western blotting analysis relative to vehicle-treated control
SW480 [12] = assay: Inhibition of Wnt/beta-catenin signaling pathway in human SW480 cells assessed as dvl2 protein expression at 10 uM after 24 hrs by Western blotting analysis relative to vehicle-treated control
SW480 [13] = assay: Inhibition of Wnt/beta-catenin signaling pathway in human SW480 cells assessed as Axin2 protein expression at 20 uM after 12 hrs by Western blotting analysis relative to vehicle-treated control
SW480 [14] = assay: Inhibition of Wnt/beta-catenin signaling pathway in human SW480 cells assessed as increase in phosphorylation of beta-catenin at Ser45 at 20 uM after 12 hrs by Western blotting analysis relative to vehicle-treated control
SW480 [15] = assay: Inhibition of Wnt/beta-catenin signaling pathway in human SW480 cells assessed as beta-catenin protein expression at 20 uM after 12 hrs by Western blotting analysis relative to vehicle-treated control
SW480 [16] = assay: Inhibition of Wnt/beta-catenin signaling pathway in human SW480 cells assessed as Axin1 protein expression at 10 uM after 24 hrs by Western blotting analysis relative to vehicle-treated control
SW480 [17] = assay: Inhibition of Wnt/beta-catenin signaling pathway in human SW480 cells after 24 hrs by TOPflash luciferase reporter gene assay relative to vehicle-treated control; format: cell-based
SW480 [18] = assay: Inhibition of Wnt/beta-catenin signaling pathway in human SW480 cells assessed as dvl2 protein expression at 20 uM after 24 hrs by Western blotting analysis relative to vehicle-treated control
SW480 [19] = assay: Antiproliferative activity against human SW480 cells assessed as growth inhibition after 72 hrs by SRB assay; format: functional, cell-based; conditions: SW480, 72 h
SW480 [20] = assay: Inhibition of Wnt/beta-catenin signaling pathway in human SW480 cells assessed as GSK3-beta protein expression at 10 uM after 12 hrs by Western blotting analysis relative to vehicle-treated control
SW480 [21] = assay: Inhibition of Wnt/beta-catenin signaling pathway in human SW480 cells assessed as GSK3-beta protein expression at 5 uM after 12 hrs by Western blotting analysis relative to vehicle-treated control
SW480 [22] = assay: Inhibition of Wnt/beta-catenin signaling pathway in human SW480 cells assessed as increase in phosphorylation of beta-catenin at Ser45 at 5 uM after 12 hrs by Western blotting analysis relative to vehicle-treated control
SW480 [23] = assay: Inhibition of Wnt/beta-catenin signaling pathway in human SW480 cells assessed as dvl1 protein expression at 20 uM after 12 hrs by Western blotting analysis relative to vehicle-treated control
SW480 [24] = assay: Inhibition of Wnt/beta-catenin signaling pathway in human SW480 cells assessed as dvl1 protein expression at 10 uM after 24 hrs by Western blotting analysis relative to vehicle-treated control
SW480 [25] = assay: Inhibition of Wnt/beta-catenin signaling pathway in human SW480 cells assessed as Axin2 protein expression at 20 uM after 24 hrs by Western blotting analysis relative to vehicle-treated control
SW480 [26] = assay: Inhibition of Wnt/beta-catenin signaling pathway in human SW480 cells assessed as dvl3 protein expression at 10 uM after 24 hrs by Western blotting analysis relative to vehicle-treated control
SW480 [27] = assay: Inhibition of Wnt/beta-catenin signaling pathway in human SW480 cells assessed as Axin2 protein expression at 10 uM after 24 hrs by Western blotting analysis relative to vehicle-treated control
SW480 [28] = assay: Inhibition of Wnt/beta-catenin signaling pathway in human SW480 cells assessed as CK1-alpha protein expression at 5 uM after 12 hrs by Western blotting analysis relative to vehicle-treated control
SW480 [29] = assay: Inhibition of Wnt/beta-catenin signaling pathway in human SW480 cells assessed as GSK3-beta protein expression at 5 uM after 24 hrs by Western blotting analysis relative to vehicle-treated control
SW480 [30] = assay: Inhibition of Wnt/beta-catenin signaling pathway in human SW480 cells assessed as Axin1 protein expression at 5 uM after 24 hrs by Immunoblotting analysis relative to vehicle-treated control
SW480 [31] = assay: Inhibition of Wnt/beta-catenin signaling pathway in human SW480 cells assessed as Axin1 protein expression at 10 uM after 24 hrs by Immunoblotting analysis relative to vehicle-treated control
SW480 [32] = assay: Inhibition of Wnt/beta-catenin signaling pathway in human SW480 cells assessed as GSK3-beta protein expression at 20 uM after 24 hrs by Western blotting analysis relative to vehicle-treated control
SW480 [33] = assay: Inhibition of Wnt/beta-catenin signaling pathway in human SW480 cells assessed as GSK3-beta protein expression at 10 uM after 24 hrs by Western blotting analysis relative to vehicle-treated control
SW480 [34] = assay: Inhibition of Wnt/beta-catenin signaling pathway in human SW480 cells assessed as dvl2 protein expression at 5 uM after 12 hrs by Western blotting analysis relative to vehicle-treated control

COc1cc([C@H]2Oc3ccc(-c4cc(=O)c5c(O)cc(O)cc5o4)cc3O[C@@H]2CO)ccc1O (relative stereo)
fold change (FC) (SW480 [1]): 1.2
fold change (FC) (SW480 [2]): 0.9
fold change (FC) (SW480 [3]): 1.2
inhibition (SW480 [4]): Dose-dependent effect
fold change (FC) (SW480 [5]): 0.8
fold change (FC) (SW480 [6]): 0.7
fold change (FC) (SW480 [7]): 3.4
fold change (FC) (SW480 [8]): 1.2
inhibition (HEK293): Dose-dependent effect
inhibition (SW480 [9]): inactive
fold change (FC) (SW480 [10]): 1
fold change (FC) (SW480 [11]): 0.7
fold change (FC) (SW480 [12]): 1.2
fold change (FC) (SW480 [13]): 6.5
fold change (FC) (SW480 [14]): 4.9
fold change (FC) (SW480 [15]): 0.6
fold change (FC) (SW480 [16]): 3.5
inhibition (SW480 [17]): Dose-dependent effect
fold change (FC) (SW480 [18]): 1.2
IC50 (SW480 [19]): 20.3 µM
fold change (FC) (SW480 [20]): 0.8
fold change (FC) (SW480 [21]): 0.8
fold change (FC) (SW480 [22]): 3
fold change (FC) (SW480 [23]): 1.1
fold change (FC) (SW480 [24]): 1
fold change (FC) (SW480 [25]): 6.7
fold change (FC) (SW480 [26]): 1
fold change (FC) (SW480 [27]): 3.2
fold change (FC) (SW480 [28]): 0.9
fold change (FC) (SW480 [29]): 1.1
fold change (FC) (SW480 [30]): 1.4
fold change (FC) (SW480 [31]): 1.5
fold change (FC) (SW480 [32]): 1
fold change (FC) (SW480 [33]): 1.2
fold change (FC) (SW480 [34]): 1.2
